Data reported in ChEMBL document CHEMBL5360614, “Quinoline Thiourea-Based Zinc Ionophores with Antibacterial Activity” (J Med Chem, 2023).
Values after ≈ are worked out from the molar mass of the structure shown. Active and inactive are the calls of the source. No cut-off for these calls is given here.

What was measured:
[1] = tested on: Lipid bilayer; assay: (§1) Induction of ionophore activity across EYPC:CHOL (8:2) large unilamellar vesicles assessed as transmembrane Zn2+ ion transport by measuring decrease in fluorescence intensity for HPTS dye at 10 uM preincubated for 3 mins followed by ZnCl2 addition and mesured after 7.5 mins by HPTS dye based fluorescence spectrophotometric analysis; settings: filed as opener, time 10.5 min
[2] = tested on: Lipid bilayer; assay: as §1, with “cation” for “Zn2+ ion”, “dye” for “dye at 10 uM”, “RbCl” for “ZnCl2”; settings: time 10.5 min
[3] = tested on: Lipid bilayer; assay: as §1, with “anion” for “Zn2+ ion”, “dye” for “dye at 10 uM”, “ZnSO4” for “ZnCl2”; settings: filed as opener; time 10.5 min
[4] = tested on: Lipid bilayer; assay: as §1, with “upto 25” for “at 10”; settings: filed as opener, time 10.5 min
[5] = tested on: Lipid bilayer; assay: as §1, with “measuring” for “measuring decrease in”, “CFZ” for “HPTS”; settings: filed as opener, time 10.5 min
[6] = tested on: Staphylococcus aureus; assay: Antibacterial activity against gentamicin-and methicillin-resistant Staphylococcus aureus ATCC 33592 assessed as reduction in bacterial growth incubated for 14 to 16 hrs by microbroth dilution method; type: functional; settings: time 14-16 hrs
[7] = tested on: Escherichia coli; assay: Antibacterial activity against Escherichia coli MTCC 1687 assessed as reduction in bacterial growth incubated for 14 to 16 hrs by microbroth dilution method; type: functional; settings: time 14-16 hrs
[8] = tested on: Staphylococcus aureus; assay: Antibacterial activity against Staphylococcus aureus MTCC-96 assessed as reduction in bacterial growth incubated for 14 to 16 hrs in presence of 100 to 400 uM ZnBr2 by microbroth dilution method; type: functional, organism-based; settings: time 14-16 hrs
[9] = tested on: Staphylococcus aureus; assay: Antibacterial activity against Staphylococcus aureus MTCC-96 assessed as reduction in bacterial growth incubated for 14 to 16 hrs in presence of 100 to 400 uM ZnSO4 by microbroth dilution method; type: functional, organism-based; settings: time 14-16 hrs
[10] = tested on: Staphylococcus aureus; assay: Antibacterial activity against Staphylococcus aureus MTCC-96 assessed as reduction in bacterial growth incubated for 14 to 16 hrs in presence of 100 to 400 uM CaCl2 by microbroth dilution method; type: functional, organism-based; settings: time 14-16 hrs
[11] = tested on: Staphylococcus aureus; assay: Antibacterial activity against Staphylococcus aureus MTCC-96 assessed as reduction in bacterial growth incubated for 14 to 16 hrs in presence of 100 to 400 uM MnCl2 by microbroth dilution method; type: functional, organism-based; settings: time 14-16 hrs
[12] = tested on: Staphylococcus aureus; assay: Bactericidal activity against Staphylococcus aureus MTCC-96 at 2 times MIC incubated for 1 hrs in presence of ZnCl2 by time kill assay; type: functional, organism-based
[13] = tested on: Staphylococcus aureus; assay: Bactericidal activity against Staphylococcus aureus MTCC-96 at 2 times MIC incubated for 1 hrs by time kill assay; type: functional, organism-based
[14] = tested on: Staphylococcus aureus; assay: Bactericidal activity against Staphylococcus aureus MTCC-96 assessed as reduction in bacterial colony formation at 2 times MIC incubated upto 8 hrs in presence of ZnCl2 by agar-plate method; type: functional, organism-based
[15] = tested on: Staphylococcus aureus; assay: Disruption of membrane integrity in Staphylococcus aureus MTCC-96 assessed as increase in fluorescence intensity at 4 to 8 uM by PI staining based fluorescence analysis; type: functional, organism-based; settings: dose 4-8 µM
[16] = tested on: Staphylococcus aureus; assay: Induction of intracellular ROS generation in Staphylococcus aureus MTCC-96 assessed as change in fluorescence intensity at 1 uM incubated for 30 mins in presence of Zn2+ ions by DCF-DA staining based fluorescence spectroscopic analysis; type: functional, organism-based
[17] = tested on: Staphylococcus aureus; assay: Induction of intracellular ROS generation in Staphylococcus aureus MTCC-96 at 1 uM incubated for 30 mins in presence of Zn2+ ions by DCF-DA staining based fluorescence microscopic analysis; type: functional, organism-based
[18] = tested on: PBMC; assay: Cytotoxicity against human PBMC cells assessed as reduction in cell viability at 12.5 to 200 uM incubated for 24 hrs by MTT assay; type: toxicity, cell-based; settings: dose 12.5-200 µM
[19] = tested on: PBMC; assay: Cytotoxicity against human PBMC cells assessed as reduction in cell viability at 12.5 to 200 uM incubated for 24 hrs in presence of ZnCl2 by MTT assay; type: toxicity, cell-based; settings: dose 12.5-200 µM
[20] = tested on: MCF-10A; assay: Cytotoxicity against human MCF-10A cells assessed as reduction in cell viability at 1 to 100 uM incubated for 44 hrs by MTT assay; type: toxicity, cell-based; settings: dose 1-100 µM
[21] = tested on: MCF7; assay: Cytotoxicity against human MCF7 cells assessed as reduction in cell viability at 1 to 100 uM incubated for 44 hrs by MTT assay; type: toxicity, cell-based; settings: mcf7, 44 h, dose 1-100 µM
[22] = tested on: MDA-MB-231; assay: Cytotoxicity against human MDA-MB-231 cells assessed as reduction in cell viability at 1 to 100 uM incubated for 44 hrs by MTT assay; type: toxicity, cell-based; settings: mda-mb-231, 44 h, dose 1-100 µM
[23] = tested on: Staphylococcus aureus; assay: In vivo antibacterial activity against Staphylococcus aureus MTCC-96 infected in Balb/c mouse assessed as bacterial load by measuring CFU in liver at 156.5 microM/Kg, iv for 7 days by CFU assay (Rvb= 719 CFU); type: functional; settings: time 7 day
[24] = tested on: Staphylococcus aureus; assay: In vivo antibacterial activity against Staphylococcus aureus MTCC-96 infected in Balb/c mouse assessed as bacterial load by measuring CFU in spleen at 156.5 microM/Kg, iv for 7 days by CFU assay; type: functional, organism-based; settings: time 7.0 day
[25] = tested on: Staphylococcus aureus; assay: In vivo antibacterial activity against Staphylococcus aureus MTCC-96 infected in Balb/c mouse assessed as less dilated portal vein in liver at 156.5 microM/Kg, iv for 7 days by hematoxylin and eosin staining based microscopic analysis; type: functional, organism-based; settings: time 7.0 day
[26] = tested on: Staphylococcus aureus; assay: In vivo antibacterial activity against Staphylococcus aureus MTCC-96 infected in Balb/c mouse assessed as less dilated hepatic artery at 156.5 microM/Kg, iv for 7 days by hematoxylin and eosin staining based microscopic analysis; type: functional, organism-based; settings: time 7.0 day
[27] = tested on: Staphylococcus aureus; assay: In vivo antibacterial activity against Staphylococcus aureus MTCC-96 infected in Balb/c mouse assessed as liver central vein with minimum infiltration at 156.5 microM/Kg, iv for 7 days by hematoxylin and eosin staining based microscopic analysis; type: functional, organism-based; settings: time 7.0 day
[28] = tested on: Staphylococcus aureus; assay: In vivo antibacterial activity against Staphylococcus aureus MTCC-96 infected in Balb/c mouse assessed as hepatocyte distribution at 156.5 microM/Kg, iv for 7 days by hematoxylin and eosin staining based microscopic analysis; type: functional, organism-based; settings: time 7.0 day
[29] = tested on: Staphylococcus aureus; assay: In vivo antibacterial activity against Staphylococcus aureus MTCC-96 infected in Balb/c mouse assessed as normal architecture of hepatic artery in liver tissue at 31.6 microM/Kg, iv for 7 days in presence of ZnCl2 by hematoxylin and eosin staining based microscopic analysis; type: functional, organism-based; settings: time 7.0 day
[30] = tested on: Staphylococcus aureus; assay: In vivo antibacterial activity against Staphylococcus aureus MTCC-96 infected in Balb/c mouse assessed as uniform distribution of hepatic lobules in liver tissue at 31.6 microM/Kg, iv for 7 days in presence of ZnCl2 by hematoxylin and eosin staining based microscopic analysis; type: functional, organism-based; settings: time 7.0 day
[31] = tested on: Staphylococcus aureus; assay: Antibacterial activity against gentamicin-and methicillin-resistant Staphylococcus aureus ATCC 33592 assessed as reduction in bacterial growth incubated for 14 to 16 hrs in presence of 100 uM ZnCl2 by microbroth dilution method; type: functional; settings: time 14-16 hrs
[32] = tested on: Staphylococcus aureus; assay: Antibacterial activity against gentamicin-and methicillin-resistant Staphylococcus aureus ATCC 33592 assessed as reduction in bacterial growth incubated for 14 to 16 hrs in presence of 200 uM ZnCl2 by microbroth dilution method; type: functional; settings: time 14-16 hrs

FC(F)(F)c1cc(NC(=S)Nc2cccc3ccc(-n4cnc5ccccc54)nc23)cc(C(F)(F)F)c1
Activity [1]: Active | Activity [2]: inactive | Activity [3]: Active | Activity [4]: Active | Activity [5]: Active | MIC [6]: 3.13 µM (≈ 1.66 µg/mL) | MIC [7]: > 50 µM | Activity [8]: Active | Activity [9]: Active | Activity [10]: inactive | Activity [11]: inactive | Activity [12]: Active | Activity [13]: Active | Activity [14]: Active | Activity [15]: inactive | Activity [16]: Active | Activity [17]: Active | Activity [18]: Non-Toxic | Activity [19]: Non-Toxic | Activity [20]: Non-Toxic | Activity [21]: Non-Toxic | Activity [22]: Non-Toxic | Activity [23]: 46 CFU | Activity [24]: Active | Activity [25]: Active | Activity [26]: Active | Activity [27]: Active | Activity [28]: Active | Activity [29]: Active | Activity [30]: Active | MIC [31]: 3.13 µM | MIC [32]: 2 µM
